Measured values reported in patent publication US20260137696A1, “Compositions Comprising an Inhibitor of Galectin-3” (University of Liverpool, priority 2023, published 2026).

Key:
[1] = system: Salmonella typhimurium strain TA100; test: Ames test (genotoxicity); format: cell-based
Description: (§1) Mutagenic potential of the compound of Formula I was assessed by Ames test in two Salmonella typhimurium strains TA98 and TA100 without and with metabolic activation (S9).
(§2) Effect of the compound inhibitors on genotoxicity was determined using the Salmonella typhimurium strains of TA 98 and TA 100 in the presence and absence of metabolic activation (S9). Each test concentration included the vehicle and positive controls. Briefly, the compounds were serially diluted in 24-well plates with or without the presence metabolic activation system (S9) and was incubated for 90 min at 37° C. in 250 rpm in a orbital shaking incubator. TA98 and TA100 were then introduced to the wells for 90 min. 50 μL aliquots from each well was dispensed into 384 well plates and incubated for 48 hrs at 37° C. in an incubator before positive wells were scored.

[2] = system: Salmonella typhimurium strain TA98; test: Ames test (genotoxicity); format: cell-based
Description: as §1, §2

ACA19 cells = conditions: human, 24 h, 100 uM
Description: (§3) The compounds of Formula I and Formula II cytotoxicity in human colon cancer SW620 (FIG. 8A), vascular HUVEC (FIG. 8B) and human melanoma ACA19 (FIG. 9C) cells was assessed in the absence or presence of various concentrations of the compounds of Formula I and Formula II (the chemotherapeutic drug Etoposide, Etop, was also included as positive control) by Lactate dehydrogenase (LDH) release assay.
as §3, with “(ACA19+) cells, which” for “ACA19 (FIG. 9C) cells”
(§4) SW620 and ACA19+ cells (5×10^4 cells/ml) were seeded into 96-well plate in DMEM and incubated at […] 5% CO2 for 24 hr. HUVECs (1.0×10^5 cells/ml) was seeded in EBM medium and incubated for 24-36 hr until they formed a monolayer. Compound inhibitors at different concentrations were then introduced to the cells (10× lysis buffer was included as maximum LDH activity control) for 24 hr. The culture medium was transferred to a new plate and was mixed with equal volume of reaction mixture provided in the kit for 30 min at room temperature before the absorbance was measured at 490 nm (reference 680 nm) by a spectrophotometer.

SW620 cells = conditions: human, 24 h, 100 uM
Description: as §3
as §3, with “(ACA19+) cells, which” for “ACA19 (FIG. 9C) cells”
as §4

HUVEC cells = conditions: human, 24 h, 100 uM
Description: as §3
as §3, with “(ACA19+) cells, which” for “ACA19 (FIG. 9C) cells”
as §4

| Compound | revertant colony count [1] | revertant colony count [2] | cytotoxicity (LDH release) (ACA19 cells) [%] | cytotoxicity (LDH release) (SW620 cells) [%] | cytotoxicity (LDH release) (HUVEC cells) [%] |
| --- | --- | --- | --- | --- | --- |
| Nc1ccc2cc3ccccc3cc2c1 [Formula 2AA, reference compound] | distinct increase | distinct increase | – | – | – |
| COc1cc([C@@H]2c3cc4c(cc3[C@@H](O[C@@H]3O[C@@H]5CO[C@@H](C)O[C@H]5[C@H](O)[C@H]3O)[C@H]3COC(=O)[C@H]23)OCO4)cc(OC)c1O [Etoposide] | – | – | ~100 | ~100 | ~100 |
